Assay results: ChEMBL document CHEMBL2074577, “Resistance to mitoxantrone in multidrug-resistant MCF7 breast cancer cells: evaluation of mitoxantrone transport and the role of multidrug resistance protein family proteins” (Cancer Res, 2001)

Molecular target: Multidrug resistance-associated protein 1 (Homo sapiens, UniProt P33527)
Test: TP_TRANSPORTER: efflux in MCF7/VP and MCF cells
Type: functional, cell-based

Sequence of Multidrug resistance-associated protein 1 (P33527 whole entry): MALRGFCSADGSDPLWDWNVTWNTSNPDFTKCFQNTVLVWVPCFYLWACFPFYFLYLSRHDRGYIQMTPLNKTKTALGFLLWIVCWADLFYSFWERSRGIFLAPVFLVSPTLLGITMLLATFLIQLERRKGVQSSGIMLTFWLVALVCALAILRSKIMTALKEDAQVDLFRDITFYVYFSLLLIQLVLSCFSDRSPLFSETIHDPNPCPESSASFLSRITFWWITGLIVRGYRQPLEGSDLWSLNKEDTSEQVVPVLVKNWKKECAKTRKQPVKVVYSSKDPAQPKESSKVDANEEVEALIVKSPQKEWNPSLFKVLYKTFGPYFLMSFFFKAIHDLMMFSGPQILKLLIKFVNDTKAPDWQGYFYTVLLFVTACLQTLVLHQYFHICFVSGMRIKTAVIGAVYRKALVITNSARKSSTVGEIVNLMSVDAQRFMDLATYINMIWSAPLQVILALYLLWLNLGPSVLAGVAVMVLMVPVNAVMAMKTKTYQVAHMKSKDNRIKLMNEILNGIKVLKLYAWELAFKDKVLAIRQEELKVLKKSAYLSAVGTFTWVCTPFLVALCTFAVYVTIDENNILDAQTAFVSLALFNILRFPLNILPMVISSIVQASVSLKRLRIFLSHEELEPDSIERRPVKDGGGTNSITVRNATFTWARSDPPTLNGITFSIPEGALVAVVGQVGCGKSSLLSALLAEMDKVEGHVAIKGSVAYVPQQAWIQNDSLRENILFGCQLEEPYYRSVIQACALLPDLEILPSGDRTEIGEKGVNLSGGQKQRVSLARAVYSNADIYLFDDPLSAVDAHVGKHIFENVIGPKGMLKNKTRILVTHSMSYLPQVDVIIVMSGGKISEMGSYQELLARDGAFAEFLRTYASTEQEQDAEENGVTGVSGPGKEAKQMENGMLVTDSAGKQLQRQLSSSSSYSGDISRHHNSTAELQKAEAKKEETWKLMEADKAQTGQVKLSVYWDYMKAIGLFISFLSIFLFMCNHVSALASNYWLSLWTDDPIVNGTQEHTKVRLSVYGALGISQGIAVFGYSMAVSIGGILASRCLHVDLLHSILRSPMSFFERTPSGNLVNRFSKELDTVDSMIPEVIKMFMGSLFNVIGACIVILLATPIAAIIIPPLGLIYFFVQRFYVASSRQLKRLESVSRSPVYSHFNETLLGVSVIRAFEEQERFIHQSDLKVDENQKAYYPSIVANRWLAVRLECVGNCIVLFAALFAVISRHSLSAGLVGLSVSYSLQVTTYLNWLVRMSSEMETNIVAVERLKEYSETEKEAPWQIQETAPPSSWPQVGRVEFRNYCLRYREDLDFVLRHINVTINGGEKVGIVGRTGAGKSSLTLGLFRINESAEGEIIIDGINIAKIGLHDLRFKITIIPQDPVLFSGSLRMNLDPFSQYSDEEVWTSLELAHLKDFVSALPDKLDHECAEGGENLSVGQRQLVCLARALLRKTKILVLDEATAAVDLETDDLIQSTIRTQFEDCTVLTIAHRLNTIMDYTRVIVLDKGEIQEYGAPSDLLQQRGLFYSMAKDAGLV

**Q.** With `O=C1c2c(O)ccc(O)c2C(=O)c2c(NCCNCCO)ccc(NCCNCCO)c21` [MITOXANTRONE] as the compound, how does the Activity read?
**A.** substrate [+]
